Reference: US8231888B2, “Isoxazolines for controlling invertebrate pests” (priority 2005, dated 2012)

Experiments:
[1] = test system: diamondback moth (Plutella xylostella); assay: Test A: control of diamondback moth on radish plant, foliar spray; format: in vivo; settings: 6 days, 25° C.
Description: For evaluating control of diamondback moth (Plutella xylostella) the test unit consisted of a small open container with a 12-14-day-old radish plant inside. This was pre-infested with about 50 neonate larvae that were dispensed into the test unit via corn cob grits using a bazooka inoculator. The larvae moved onto the test plant after being dispensed into the test unit.
(§1) Test compounds were formulated using a solution containing 10% acetone, 90% water and 300 ppm X-77™ Spreader Lo-Foam Formula non-ionic surfactant containing alkylarylpolyoxyethylene, free fatty acids, glycols and isopropanol (Loveland Industries, Inc. Greeley, Colo., USA). The formulated compounds were applied in 1 mL of liquid through a SUJ2 atomizer nozzle with 1/8 JJ custom body (Spraying Systems Co. Wheaton, Ill., USA) positioned 1.27 cm (0.5 inches) above the top of each test unit. All experimental compounds in these tests were sprayed at 250 and/or 50 ppm, and the test was replicated three times. After spraying of the formulated test compound, each test unit was allowed to dry for 1 h and then a black, screened cap was placed on top. The test units were held for 6 days in a growth chamber at 25° C. and 70% relative humidity. Plant feeding damage was then visually assessed based on foliage consumed and a pest mortality rating was also counted and calculated for each test unit.

[2] = test system: fall armyworm (Spodoptera frugiperda); assay: Test B: control of fall armyworm on corn (maize) plant, foliar spray; format: in vivo
Method: as §1
For evaluating control of fall armyworm (Spodoptera frugiperda) the test unit consisted of a small open container with a 4-5-day-old corn (maize) plant inside. This was pre-infested (using a core sampler) with 10-15 1-day-old larvae on a piece of insect diet. Test compounds were formulated and sprayed at 250 and/or 50 ppm as described for Test A and replicated three times. After spraying, the test units were maintained in a growth chamber and then the control efficacy was rated for each test unit as described for Test A.

[3] = sprayed at 250 and/or 50 ppm, no asterisk (not limited to 250 ppm)
[4] = asterisk: observed only at 250 ppm

Row | Structure (SMILES) | control efficacy (20% or less feeding damage or 80% or more mortality) [1, 3] | control efficacy (20% or less feeding damage or 80% or more mortality) [2, 3] | control efficacy (20% or less feeding damage or 80% or more mortality) [2, 4] | control efficacy (20% or less feeding damage or 80% or more mortality) [1, 4]
1 | CC(NC(=O)c1ccc(C2=NOC(c3cc(Cl)cc(Cl)c3)(C(F)(F)F)C2)c2ccccc12)c1ccc2ccccc2c1 (mixture of isomers) [Compound 27] | very good to excellent levels of control efficacy |  |  | 
2 | CC(NC(=O)c1ccc(C2=NOC(c3cc(Cl)cc(Cl)c3)(C(F)(F)F)C2)c2ccccc12)c1ccc([N+](=O)[O-])cc1 (mixture of isomers) [Compound 28] | very good to excellent levels of control efficacy | very good to excellent levels of control efficacy |  | 
3 | COC(=O)C(NC(=O)c1ccc(C2=NOC(c3cc(Cl)cc(Cl)c3)(C(F)(F)F)C2)c2ccccc12)c1ccccc1 (mixture of isomers) [Compound 29] | very good to excellent levels of control efficacy | very good to excellent levels of control efficacy |  | 
4 | CC(NC(=O)c1ccc(C2=NOC(c3cc(Cl)cc(Cl)c3)(C(F)(F)F)C2)c2ccccc12)c1ccc(Cl)cc1 (mixture of isomers) [Compound 30] | very good to excellent levels of control efficacy | very good to excellent levels of control efficacy |  | 
5 | CC(NC(=O)c1ccc(C2=NOC(c3cc(Cl)cc(Cl)c3)(C(F)(F)F)C2)c2ccccc12)c1ccc(F)cc1 (mixture of isomers) [Compound 31] | very good to excellent levels of control efficacy | very good to excellent levels of control efficacy |  | 
6 | O=C(NCc1cccnc1)c1ccc(C2=NOC(c3cc(Cl)cc(Cl)c3)(C(F)(F)F)C2)c2ccccc12 (centres unmarked) [Compound 6] | very good to excellent levels of control efficacy | very good to excellent levels of control efficacy |  | 
7 | O=C(NCc1ccncc1)c1ccc(C2=NOC(c3cc(Cl)cc(Cl)c3)(C(F)(F)F)C2)c2ccccc12 (centres unmarked) [Compound 7] | very good to excellent levels of control efficacy | very good to excellent levels of control efficacy |  | 
8 | CCN(C)C(=O)c1ccc(C2=NOC(c3cc(Cl)cc(Cl)c3)(C(F)(F)F)C2)c2ccccc12 (centres unmarked) [Compound 9] | very good to excellent levels of control efficacy | very good to excellent levels of control efficacy |  | 
9 | CNC(=O)c1ccc(C2=NOC(c3cc(Cl)cc(Cl)c3)(C(F)(F)F)C2)c2ccccc12 (centres unmarked) [Compound 12] | very good to excellent levels of control efficacy | very good to excellent levels of control efficacy |  | 
10 | Cc1cc(C)cc(C2(C(F)(F)F)CC(c3ccc(C(=O)NCc4ccccn4)c4ccccc34)=NO2)c1 (centres unmarked) [Compound 22] | very good to excellent levels of control efficacy | very good to excellent levels of control efficacy |  | 
11 | O=C(NCc1ccccn1)c1ccc(C2=NOC(c3ccc(Cl)c(Cl)c3)(C(F)(F)F)C2)c2ccccc12 (centres unmarked) [Compound 23] | very good to excellent levels of control efficacy | very good to excellent levels of control efficacy |  | 
12 | O=C(NCc1ccccn1)c1ccc(C2=NOC(c3cccc(Cl)c3)(C(F)(F)F)C2)c2ccccc12 (centres unmarked) [Compound 25] |  | very good to excellent levels of control efficacy |  | 
13 | NC(=O)c1ccc(C2=NOC(c3cc(Cl)cc(Cl)c3)(C(F)(F)F)C2)c2ccccc12 (centres unmarked) [Compound 36] | very good to excellent levels of control efficacy | very good to excellent levels of control efficacy |  | 
14 | O=C(N[C@H]1CCCc2ccccc21)c1ccc(C2=NOC(c3cc(Cl)cc(Cl)c3)(C(F)(F)F)C2)c2ccccc12 (some centres unmarked) [Compound 38] | very good to excellent levels of control efficacy |  |  | 
15 | O=C(O)CNC(=O)c1ccc(C2=NOC(c3cc(Cl)cc(Cl)c3)(C(F)(F)F)C2)c2ccccc12 (centres unmarked) [Compound 43] | very good to excellent levels of control efficacy |  |  | 
16 | NCCCCCCNC(=O)c1ccc(C2=NOC(c3cc(Cl)cc(Cl)c3)(C(F)(F)F)C2)c2ccccc12 (centres unmarked) [Compound 50] | very good to excellent levels of control efficacy |  |  | 
17 | O=C(NCc1ccccn1)c1ccc(C2=NOC(c3cc(Cl)cc(Cl)c3)(C(F)(F)F)C2)c2cccnc12 (centres unmarked) [Compound 103, 5-[5-(3,5-dichlorophenyl)-4,5-dihydro-5-(trifluoromethyl)-3-isoxazolyl]-N-(2-pyridinylmethyl)-8-quinolinecarboxamide] | very good to excellent levels of control efficacy | very good to excellent levels of control efficacy |  | 
18 | O=C(NCc1ccccn1)c1ccc(C2=NOC(c3cc(Cl)cc(Cl)c3)(C(F)(F)F)C2)c2cnccc12 (centres unmarked) [Compound 105] | very good to excellent levels of control efficacy |  |  | 
19 | O=C(NCc1ccccn1)c1ccc(C2=NOC(c3cc(Cl)cc(Cl)c3)(C(F)(F)F)C2)c2ncccc12 (centres unmarked) [Compound 106] | very good to excellent levels of control efficacy |  | very good to excellent levels of control efficacy | 
20 | O=C(NCC(F)(F)F)c1ccc(C2=NOC(c3cc(Cl)cc(Cl)c3)(C(F)(F)F)C2)c2ncccc12 (centres unmarked) [Compound 107] |  |  | very good to excellent levels of control efficacy | very good to excellent levels of control efficacy
21 | FC(F)(F)C1(c2cc(Cl)cc(Cl)c2)CC(c2ccc(C(=S)NCc3ccccn3)c3cccnc23)=NO1 (centres unmarked) [Compound 108] |  |  |  | very good to excellent levels of control efficacy
22 | FC(F)(F)CNC(=S)c1ccc(C2=NOC(c3cc(Cl)cc(Cl)c3)(C(F)(F)F)C2)c2ncccc12 (centres unmarked) [Compound 109] |  |  |  | very good to excellent levels of control efficacy
23 | O=C(NCC(F)(F)F)c1ccc(C2=NOC(c3ccnc(Cl)c3)(C(F)(F)F)C2)c2ccccc12 (centres unmarked) [Compound 201] | very good to excellent levels of control efficacy | very good to excellent levels of control efficacy |  | 
